Values of other authors as cited in patent publication US6899896B2, “Hydrogel-driven layered drug dosage form” (Pfizer Inc, priority 1999, dated 2005).
Where two headings read alike, the source gives them in different places.

solubility of sertraline (pH 2.0): 6 mgA/mL
solubility of sertraline (pH 6.5): about 1 mgA/mL
solubility of sertraline (pH about 7.0): about 0.2 mgA/mL
solubility of sertraline (pH about 7.5): about 0.05 mgA/mL
Structure (SMILES): CN[C@H]1CC[C@@H](c2ccc(Cl)c(Cl)c2)c2ccccc21 [Sertraline, (1S-cis)-4-(3,4-dichlorophenyl)-1,2,3,4-tetrahydro-N-methyl-1-naphthalenamine]
